Test results: patent publication US11746111B2, “Siderophore conjugated pyrazolidinones, and analogues thereof” (YALE UNIVERSITY, priority 2018, dated 2023)
≈ marks a conversion by molar mass, not a printed value. Where two headings read alike, the source gives them in different places.

How the values were obtained:
[1] = test system: E. coli clinical isolates; test: Microdilution broth MIC, E. coli clinical isolates (Table 1); type: cell-based; conditions: Escherichia coli
Protocol: (§1) Microdilution Broth Minimum Inhibitory Concentrations (MICs)
(§2) MICs were performed in triplicate in cation adjusted Mueller-Hinton (MH) broth 30 according to CLSI guidelines. Firstly, overnight cultures of E. coli and K. pneumoniae clinical isolates were inoculated into 5 ml MH broth to OD600=0.1 and grown to OD600=0.224 (approximately 1-2×10^8 CFU/ml). These cultures were diluted (3 μl+4997 μl MH) and 100 μl inoculated into each well of a 96-well plate containing 100 μl of serial dilutions of compound 26 (YU253434), ampicillin, ceftazidime, or imipenem. The plates were placed in a 37° C. incubator for 18-20 hours and wells checked for growth.

[2] = test system: K. pneumoniae clinical isolates; test: Microdilution broth MIC, K. pneumoniae clinical isolates (Table 1); type: cell-based; conditions: Klebsiella pneumoniae
Protocol: as §1, §2

[3] = E. coli 35218, TEM-1, read-out: MIC
[4] = E. coli LC12, CTX-M-1 grp(15), read-out: MIC
[5] = E. coli LC77, TEM, KPC, read-out: MIC
[6] = E. coli LC81, SHV (238S + 240K), read-out: MIC
[7] = E. coli LC91, CTX-M-1 grp(15), CMY (group II), read-out: MIC
[8] = E. coli LC98, CMY (group II), read-out: MIC
[9] = E. coli LC111, TEM (164S), read-out: MIC
[10] = E. coli LC136, SHV (WT + 238S), read-out: MIC
[11] = K. pneumoniae LC56, CTX-M-1 grp(15), read-out: MIC
[12] = K. pneumoniae LC102, SHV-1 (WT + 238S), read-out: MIC
[13] = K. pneumoniae Rush23, CTX-M-9 group, read-out: MIC
[14] = K. pneumoniae VA-368, KPC-2, TEM-1, SHV-5, SHV-68, read-out: MIC
[15] = K. pneumoniae VA-398, KPC-3, TEM-1, SHV-11, SHV-12, SHV-27, read-out: MIC

## CC1(C)S[C@@H]2[C@H](NC(=O)[C@H](N)c3ccccc3)C(=O)N2[C@H]1C(=O)O [Ampicillin]
[1]; BAA202, E. coli BAA-202, SHV-1
  MIC: > 2050 µg/mL
[1]; [3]
  MIC: 256 µg/mL (≈ 733 µM)
[1]; E. coli LC4, TEM, SHV-12
  MIC: > 2050 µg/mL
[1]; [4]
  MIC: 2050 µg/mL (≈ 5860 µM)
[1]; E. coli LC15, CTX-M-9 group, CTX-M-1 grp(15)
  MIC: 1020 µg/mL (≈ 2930 µM)
[1]; E. coli LC33, CTX-M-9 group
  MIC: 512 µg/mL (≈ 1470 µM)
[1]; E. coli LC38, CTX-M-1 grp(15), PB AmpC (ACT/MIR)
  MIC: 512 µg/mL (≈ 1470 µM)
[1]; E. coli LC41, TEM (238S), PB AmpC (ACT/MIR), CTX-M-1 grp(15)
  MIC: 512 µg/mL (≈ 1470 µM)
[1]; [5]
  MIC: 2050 µg/mL (≈ 5860 µM)
[1]; [6]
  MIC: 2050 µg/mL
[1]; [7]
  MIC: 2050 µg/mL (≈ 5860 µM)
[1]; [8]
  MIC: 2050 µg/mL (≈ 5860 µM)
[1]; E. coli LC109, CTX-M-9 group, CMY (group II)
  MIC: 1020 µg/mL (≈ 2930 µM)
[1]; [9]
  MIC: 1020 µg/mL (≈ 2930 µM)
[1]; [10]
  MIC: 512 µg/mL
[1]; E. coli Rush24, CMY (group II)
  MIC: > 2050 µg/mL
[2]; K. pneumoniae 7000063, β-lactamase SHV-18
  MIC: 1020 µg/mL (≈ 2930 µM)
[2]; K. pneumoniae KB390 Quale, TEM-30, TEM-1, KPC-2, SHV-12, read-out: MIC
  MIC: > 2050 µg/mL
[2]; K. pneumoniae LC40, CTX-M-1 grp(15), TEM (164S)
  MIC: 512 µg/mL (≈ 1470 µM)
[2]; [11]
  MIC: > 2050 µg/mL
[2]; [12]
  MIC: > 2050 µg/mL
[2]; K. pneumoniae LC121, SHV-1 (WT + 238S + 240K)
  MIC: 1020 µg/mL
[2]; [13]
  MIC: > 2050 µg/mL
[2]; K. pneumoniae VA-184, KPC-2, SHV-11, SHV-12, read-out: MIC
  MIC: > 2050 µg/mL
[2]; K. pneumoniae VA-267, KPC-3, TEM-1, SHV-11, SHV-12, read-out: MIC
  MIC: > 2050 µg/mL
[2]; K. pneumoniae VA-357, KPC-2, SHV-11, read-out: MIC
  MIC: > 2050 µg/mL
[2]; [14]
  MIC: > 2050 µg/mL
[2]; K. pneumoniae VA-384, KPC-2, TEM-1, SHV-11, SHV-12, SHV-14, read-out: MIC
  MIC: > 2050 µg/mL
[2]; K. pneumoniae VA-391, KPC-3, TEM-1, SHV-11, SHV-12, SHV-77, read-out: MIC
  MIC: > 2050 µg/mL
[2]; [15]
  MIC: > 2050 µg/mL
[2]; K. pneumoniae VA-400, KPC-2, TEM-1, SHV-11, SHV-12, read-out: MIC
  MIC: > 2050 µg/mL
[2]; K. pneumoniae VA-406, KPC-2, TEM-1, SHV-11, SHV-12, read-out: MIC
  MIC: > 2050 µg/mL
[2]; K. pneumoniae VA-410, KPC-3, TEM-1, SHV-11, read-out: MIC
  MIC: > 2050 µg/mL

## CC(C)(O/N=C(\C(=O)N[C@@H]1C(=O)N2C(C(=O)[O-])=C(C[n+]3ccccc3)CS[C@H]12)c1csc(N)n1)C(=O)O [Ceftazidime]
[1]; BAA202, E. coli BAA-202, SHV-1, read-out: MIC
  MIC: 16 µg/mL (≈ 29.3 µM)
[1]; [3]
  MIC: < 1 µg/mL
[1]; E. coli LC4, TEM, SHV-12
  MIC: 256 µg/mL (≈ 468 µM)
[1]; [4]
  MIC: > 1020 µg/mL
[1]; E. coli LC15, CTX-M-9 group, CTX-M-1 grp(15), read-out: MIC
  MIC: < 1 µg/mL
[1]; E. coli LC33, CTX-M-9 group, read-out: MIC
  MIC: 4 µg/mL (≈ 7.32 µM)
[1]; E. coli LC38, CTX-M-1 grp(15), PB AmpC (ACT/MIR), read-out: MIC
  MIC: < 1 µg/mL
[1]; E. coli LC41, TEM (238S), PB AmpC (ACT/MIR), CTX-M-1 grp(15), read-out: MIC
  MIC: < 1 µg/mL
[1]; [5]
  MIC: 16 µg/mL (≈ 29.3 µM)
[1]; [6]
  MIC: 128 µg/mL
[1]; [7]
  MIC: 16 µg/mL (≈ 29.3 µM)
[1]; [8]
  MIC: 256 µg/mL (≈ 468 µM)
[1]; E. coli LC109, CTX-M-9 group, CMY (group II), read-out: MIC
  MIC: 32 µg/mL (≈ 58.5 µM)
[1]; [9]
  MIC: 2 µg/mL (≈ 3.66 µM)
[1]; [10]
  MIC: < 1 µg/mL
[1]; E. coli Rush24, CMY (group II), read-out: MIC
  MIC: 256 µg/mL (≈ 468 µM)
[2]; K. pneumoniae 7000063, β-lactamase SHV-18, read-out: MIC
  MIC: 16 µg/mL (≈ 29.3 µM)
[2]; K. pneumoniae KB390 Quale, TEM-30, TEM-1, KPC-2, SHV-12
  MIC: 512 µg/mL (≈ 937 µM)
[2]; K. pneumoniae LC40, CTX-M-1 grp(15), TEM (164S), read-out: MIC
  MIC: < 1 µg/mL
[2]; [11]
  MIC: 16 µg/mL (≈ 29.3 µM)
[2]; [12]
  MIC: 4 µg/mL
[2]; K. pneumoniae LC121, SHV-1 (WT + 238S + 240K), read-out: MIC
  MIC: 16 µg/mL
[2]; [13]
  MIC: 2 µg/mL (≈ 3.66 µM)
[2]; K. pneumoniae VA-184, KPC-2, SHV-11, SHV-12
  MIC: 256 µg/mL (≈ 468 µM)
[2]; K. pneumoniae VA-267, KPC-3, TEM-1, SHV-11, SHV-12
  MIC: 512 µg/mL (≈ 937 µM)
[2]; K. pneumoniae VA-357, KPC-2, SHV-11
  MIC: 128 µg/mL (≈ 234 µM)
[2]; [14]
  MIC: 16 µg/mL (≈ 29.3 µM)
[2]; K. pneumoniae VA-384, KPC-2, TEM-1, SHV-11, SHV-12, SHV-14
  MIC: 256 µg/mL (≈ 468 µM)
[2]; K. pneumoniae VA-391, KPC-3, TEM-1, SHV-11, SHV-12, SHV-77
  MIC: 256 µg/mL (≈ 468 µM)
[2]; [15]
  MIC: 32 µg/mL (≈ 58.5 µM)
[2]; K. pneumoniae VA-400, KPC-2, TEM-1, SHV-11, SHV-12
  MIC: 256 µg/mL (≈ 468 µM)
[2]; K. pneumoniae VA-406, KPC-2, TEM-1, SHV-11, SHV-12
  MIC: 256 µg/mL (≈ 468 µM)
[2]; K. pneumoniae VA-410, KPC-3, TEM-1, SHV-11
  MIC: 128 µg/mL (≈ 234 µM)
